Results as given in PubChem BioAssay (NCI).
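Each compound was tested at five concentrations against cells in 96-well plates for 48 hours. TGI: total growth inhibition.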

Columns and labels:
Assay in all cases: NCI anticancer screen, dose series, 48 h
HS 578T breast = test system: HS 578T breast
HCT-15 colon = test system: HCT-15 colon
NCI-H460 lung = test system: NCI-H460 lung
SF-539 CNS = test system: SF-539 CNS
HT29 colon = test system: HT29 colon
A498 renal = test system: A498 renal
OVCAR-3 ovarian = test system: OVCAR-3 ovarian
MOLT-4 leukemia = test system: MOLT-4 leukemia
HCC-2998 colon = test system: HCC-2998 colon
UACC-257 melanoma = test system: UACC-257 melanoma
T-47D breast = test system: T-47D breast
UACC-62 melanoma = test system: UACC-62 melanoma
CAKI-1 renal = test system: CAKI-1 renal
MDA-MB-435 = test system: MDA-MB-435
OVCAR-8 ovarian = test system: OVCAR-8 ovarian
NCI/ADR-RES ovarian = test system: NCI/ADR-RES ovarian
RXF 393 renal = test system: RXF 393 renal
U251 CNS = test system: U251 CNS
HOP-62 NSCLC = test system: HOP-62 NSCLC
COLO 205 colon = test system: COLO 205 colon
DU-145 prostate = test system: DU-145 prostate
MALME-3M melanoma = test system: MALME-3M melanoma
SNB-75 CNS = test system: SNB-75 CNS
KM12 colon = test system: KM12 colon
NCI-H23 lung = test system: NCI-H23 lung
IGROV1 ovarian = test system: IGROV1 ovarian
HOP-92 NSCLC = test system: HOP-92 NSCLC
M14 melanoma = test system: M14 melanoma
CCRF-CEM leukemia = test system: CCRF-CEM leukemia
MDA-N = test system: MDA-N
MCF7 breast = test system: MCF7 breast
A549 NSCLC = test system: A549 NSCLC
SK-OV-3 ovarian = test system: SK-OV-3 ovarian
BT-549 breast = test system: BT-549 breast
HCT-116 colon = test system: HCT-116 colon
SF-295 CNS = test system: SF-295 CNS
HL-60(TB) leukemia = test system: HL-60(TB) leukemia
OVCAR-5 ovarian = test system: OVCAR-5 ovarian
TK-10 renal = test system: TK-10 renal
OVCAR-4 ovarian = test system: OVCAR-4 ovarian
LOX IMVI melanoma = test system: LOX IMVI melanoma
RPMI-8226 leukemia = test system: RPMI-8226 leukemia
SK-MEL-28 melanoma = test system: SK-MEL-28 melanoma
ACHN renal = test system: ACHN renal
EKVX NSCLC = test system: EKVX NSCLC
K-562 leukemia = test system: K-562 leukemia
SW-620 colon = test system: SW-620 colon
PC-3 prostate = test system: PC-3 prostate
SF-268 CNS = test system: SF-268 CNS
MDA-MB-231 breast = test system: MDA-MB-231 breast
786-0 renal = test system: 786-0 renal
NCI-H522 lung = test system: NCI-H522 lung
SNB-19 CNS = test system: SNB-19 CNS
SN12C renal = test system: SN12C renal
SK-MEL-2 melanoma = test system: SK-MEL-2 melanoma

N/C(COc1ccc(Cl)cc1)=N\NC(=O)c1ccncc1
TGI (HS 578T breast): > 100 µM | TGI (HCT-15 colon): > 100 µM | TGI (NCI-H460 lung): > 100 µM | TGI (SF-539 CNS): > 100 µM | TGI (HT29 colon): > 100 µM | TGI (A498 renal): > 100 µM | TGI (OVCAR-3 ovarian): > 100 µM | TGI (MOLT-4 leukemia): > 100 µM | TGI (HCC-2998 colon): > 100 µM | TGI (UACC-257 melanoma): > 100 µM | TGI (T-47D breast): > 100 µM | TGI (UACC-62 melanoma): > 100 µM | TGI (CAKI-1 renal): > 100 µM | TGI (MDA-MB-435): > 100 µM | TGI (OVCAR-8 ovarian): > 100 µM | TGI (NCI/ADR-RES ovarian): > 100 µM | TGI (RXF 393 renal): > 100 µM | TGI (U251 CNS): > 100 µM | TGI (HOP-62 NSCLC): > 100 µM | TGI (COLO 205 colon): > 100 µM | TGI (DU-145 prostate): > 100 µM | TGI (MALME-3M melanoma): > 100 µM | TGI (SNB-75 CNS): 85.2 µM | TGI (KM12 colon): > 100 µM | TGI (NCI-H23 lung): > 100 µM | TGI (IGROV1 ovarian): > 100 µM | TGI (HOP-92 NSCLC): > 100 µM | TGI (M14 melanoma): > 100 µM | TGI (CCRF-CEM leukemia): > 100 µM | TGI (MDA-N): > 100 µM | TGI (MCF7 breast): > 100 µM | TGI (A549 NSCLC): > 100 µM | TGI (SK-OV-3 ovarian): > 100 µM | TGI (BT-549 breast): > 100 µM | TGI (HCT-116 colon): > 100 µM | TGI (SF-295 CNS): > 100 µM | TGI (HL-60(TB) leukemia): > 100 µM | TGI (OVCAR-5 ovarian): > 100 µM | TGI (TK-10 renal): > 100 µM | TGI (OVCAR-4 ovarian): > 100 µM | TGI (LOX IMVI melanoma): > 100 µM | TGI (RPMI-8226 leukemia): > 100 µM | TGI (SK-MEL-28 melanoma): > 100 µM | TGI (ACHN renal): > 100 µM | TGI (EKVX NSCLC): > 100 µM | TGI (K-562 leukemia): > 100 µM | TGI (SW-620 colon): > 100 µM | TGI (PC-3 prostate): > 100 µM | TGI (SF-268 CNS): > 100 µM | TGI (MDA-MB-231 breast): > 100 µM | TGI (786-0 renal): > 100 µM | TGI (NCI-H522 lung): > 100 µM | TGI (SNB-19 CNS): > 100 µM | TGI (SN12C renal): > 100 µM | TGI (SK-MEL-2 melanoma): > 100 µM
